Measurements from patent publication US11597702B2, “Substituted pyrazoles FFA4/GPR120 receptor agonists” (AXXAM S.P.A., priority 2018, dated 2023).

target: T1, GPR120 (Homo sapiens, UniProt Q5NUL3); assay: GPR120 agonism in CHO mitoPhotinaGPR120 cell based assay with fluorescent (Fluo-8 calcium, FLIPRTetra) readout, Agonist Mode, dose response; conditions: CHO mitoPhotinaGPR120 cells, Fluo-8 No Wash Ca2+ dye, dose response in quadruplicate, 0.0033% fatty acid free BSA
T1 construct: expressed in transfected cells; host or cells: CHO mitoPhotinaGPR120 cells
T1 sequence (Q5NUL3 1-361): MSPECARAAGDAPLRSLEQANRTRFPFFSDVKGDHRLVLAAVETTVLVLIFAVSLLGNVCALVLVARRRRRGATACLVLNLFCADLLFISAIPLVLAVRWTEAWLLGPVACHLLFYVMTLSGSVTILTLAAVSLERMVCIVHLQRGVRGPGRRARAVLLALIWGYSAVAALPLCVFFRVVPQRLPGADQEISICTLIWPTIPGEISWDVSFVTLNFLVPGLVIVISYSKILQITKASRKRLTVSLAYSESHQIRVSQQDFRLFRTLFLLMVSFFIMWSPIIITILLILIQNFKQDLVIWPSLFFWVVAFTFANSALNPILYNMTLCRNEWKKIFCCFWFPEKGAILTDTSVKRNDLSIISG
Experimental: Compounds of the invention were tested for GPR120 agonism in a CHO mitoPhotinaGPR120 cell based assay with fluorescent readout in Agonist Mode in dose response in quadruplicate with intra-plate modality.
Twenty (20) h after seeding, growth medium was manually removed and cells were starved in the presence of 25 μL/w of Standard Tyrode's Buffer. After 3 h, cells were loaded with 20 μL/w of 0.5× Fluo-8 No Wash (AAT Bioquest, Inc.) Ca2+ sensitive dye prepared in Standard Tyrode's Buffer. Cells were incubated for 1 h at room temperature in the dark. Ten (10) μL/w 3× of controls and compounds were diluted in Standard Tyrode's Buffer+0.01% fatty acid free BSA (final concentration=0.0033%) and injected at the FLIPRTetra®, recording the kinetic calcium traces for 3 minutes. Standard Tyrode's buffer composition: 5 mM KCl, 130 mM NaCl, 2 mM CaCl2), 5 mM NaHCO3, 1 mM MgCl2, 20 mM HEPES, pH7.4.

Row | SMILES | EC50
1 | Cc1nn(-c2ccccc2)c(COc2ccc(CCC(C)O)cc2)c1C#N (single isomer, unassigned; (+)) [Example 47A, (+)-5-[[4-(3-hydroxybutyl)phenoxy]methyl]-3-methyl-1-phenyl-pyrazole-4-carbonitrile] | 0.5 µM
2 | Cc1nn(-c2ccccc2)c(COc2c(F)cc(CO)cc2F)c1C#N [Example 21, 5-[[2,6-difluoro-4-(hydroxymethyl)phenoxy]methyl]-3-methyl-1-phenyl-pyrazole-4-carbonitrile] | 1.33 µM
3 | Cc1cc(CO)ccc1OCc1c(C#N)c(C)nn1-c1ccccc1 [Example 16, 5-[[4-(hydroxymethyl)-2-methyl-phenoxy]methyl]-3-methyl-1-phenyl-pyrazole-4-carbonitrile] | 0.86 µM
4 | Cc1nn(-c2ccc(F)cn2)c(COc2c(F)cc(CCCO)cc2F)c1C#N [Example 164, 5-[[2,6-difluoro-4-(3-hydroxypropyl)phenoxy]methyl]-1-(5-fluoro-2-pyridyl)-3-methyl-pyrazole-4-carbonitrile] | 0.19 µM
5 | Cc1nn(-c2ccccc2)c(COc2ccc(CO)cc2C(F)(F)F)c1C#N [Example 147, 5-[[4-(hydroxymethyl)-2-(trifluoromethyl)phenoxy]methyl]-3-methyl-1-phenyl-pyrazole-4-carbonitrile] | 1.49 µM
6 | COCc1ccc(OCc2c(C#N)c(C)nn2-c2ccccc2)cc1 [Example 55, 5-[[4-(methoxymethyl)phenoxy]methyl]-3-methyl-1-phenyl-pyrazole-4-carbonitrile] | 2.03 µM
7 | Cc1nn(-c2ccncc2)c(COc2ccc(CCO)cc2)c1C#N [Example 104, 5-[[4-(2-hydroxyethyl)phenoxy]methyl]-3-methyl-1-(4-pyridyl)pyrazole-4-carbonitrile] | 10.4 µM
8 | Cc1ccc(OCc2c(C#N)c(C)nn2-c2ccccc2)cn1 [Example 69, 3-methyl-5-[(6-methyl-3-pyridyl)oxymethyl]-1-phenyl-pyrazole-4-carbonitrile] | 9.82 µM
9 | Cc1nn(-c2ccccn2)c(COc2ccc(CCCO)cc2)c1C#N [Example 149, 5-[[4-(3-hydroxypropyl)phenoxy]methyl]-3-methyl-1-(2-pyridyl)pyrazole-4-carbonitrile] | 0.15 µM
10 | Cc1nn(-c2ccccc2)c(COc2ccc(CO)cc2F)c1C#N [Example 20, 5-[[2-fluoro-4-(hydroxymethyl)phenoxy]methyl]-3-methyl-1-phenyl-pyrazole-4-carbonitrile] | 1.77 µM
11 | Cc1nn(-c2ccccc2F)c(COc2ccc(CCO)cc2)c1C#N [Example 82, 1-(2-fluorophenyl)-5-[[4-(2-hydroxyethyl)phenoxy]methyl]-3-methyl-pyrazole-4-carbonitrile] | 3.41 µM
12 | Cc1nn(Cc2ccccc2)c(COc2ccc(CCCO)cc2)c1C#N [Example 89, 1-benzyl-5-[[4-(3-hydroxypropyl)phenoxy]methyl]-3-methyl-pyrazole-4-carbonitrile] | 0.99 µM
13 | Cc1nn(-c2ccccc2)c(COc2ccc(CCC(C)O)cc2)c1C#N (single isomer, unassigned; (-)) [Example 47B, (−)-5-[[4-(3-hydroxybutyl)phenoxy]methyl]-3-methyl-1-phenyl-pyrazole-4-carbonitrile] | 2.36 µM
14 | CCc1ccc(-n2nc(C)c(C#N)c2COc2ccc(CCO)cc2)cc1 [Example 78, 1-(4-ethylphenyl)-5-[[4-(2-hydroxyethyl)phenoxy]methyl]-3-methyl-pyrazole-4-carbonitrile] | 0.38 µM
15 | Cc1nn(-c2ccccc2)c(COc2cccc(CO)c2)c1C#N [Example 24, 5-[[3-(hydroxymethyl)phenoxy]methyl]-3-methyl-1-phenyl-pyrazole-4-carbonitrile] | 7.31 µM
16 | Cc1nn(-c2ccccc2)c(COc2ccc(C(C)O)cc2)c1C#N (stereo not shown) [Example 54, 5-[[4-(1-hydroxyethyl)phenoxy]methyl]-3-methyl-1-phenyl-pyrazole-4-carbonitrile] | 18.4 µM

Further compounds by falling EC50, results first:

Row | EC50 | SMILES
17 | 9.73 µM | Cc1nn(-c2ccccc2)c(COc2c(F)cc(CCC(=O)O)cc2F)c1C#N [Example 133, 3-[4-[(4-cyano-5-methyl-2-phenyl-pyrazol-3-yl)methoxy]-3,5-difluoro-phenyl]propanoic acid]
18 | 8.13 µM | Cc1nn(-c2ccccc2)c(COc2ccccc2CO)c1C#N [Example 23, 5-[[2-(hydroxymethyl)phenoxy]methyl]-3-methyl-1-phenyl-pyrazole-4-carbonitrile]
19 | 4.48 µM | COc1ccc(S(=O)(=O)Nc2c(C)cc(C)cc2C)cc1 [GSK137639A, reference compound]
20 | 4.22 µM | Cc1nn(-c2ccccc2)c(COc2ccc(CC#N)cc2)c1C#N [Example 29, 5-[[4-(cyanomethyl)phenoxy]methyl]-3-methyl-1-phenyl-pyrazole-4-carbonitrile]
21 | 3.39 µM | Cc1nn(-c2ccccc2)c(COc2ccc(C#N)cc2F)c1C#N [Example 10, 5-[(4-cyano-2-fluoro-phenoxy)methyl]-3-methyl-1-phenyl-pyrazole-4-carbonitrile]
22 | 2.6 µM | Cc1nn(-c2ccccc2)c(COc2ccc3ccncc3c2)c1C#N [Example 62, 5-(7-isoquinolyloxymethyl)-3-methyl-1-phenyl-pyrazole-4-carbonitrile]
23 | 2.31 µM | Cc1nn(-c2ccccc2)c(COc2ccc(CO)cc2)c1C#N [Example 5, 5-[[4-(hydroxymethyl)phenoxy]methyl]-3-methyl-1-phenyl-pyrazole-4-carbonitrile]
24 | 1.65 µM | Cc1nn(-c2ccccc2)c(COc2ccc(CCC(C)O)cc2)c1C#N (racemic) [Example 47, 5-[[4-(3-hydroxybutyl)phenoxy]methyl]-3-methyl-1-phenyl-pyrazole-4-carbonitrile]
25 | 1.58 µM | Cc1ccccc1OCc1c(C#N)c(C)nn1-c1ccc(F)cc1 [Example 86, 1-(4-fluorophenyl)-3-methyl-5-[(2-methylphenoxy)methyl]pyrazole-4-carbonitrile]
26 | 0.81 µM | Cc1nn(-c2ccc(Cl)cn2)c(COc2ccc(CCCO)cc2)c1C#N [Example 155, 1-(5-chloro-2-pyridyl)-5-[[4-(3-hydroxypropyl)phenoxy]methyl]-3-methyl-pyrazole-4-carbonitrile]
27 | 0.64 µM | COc1ccc(-n2nc(C)c(C#N)c2COc2ccc(CCO)cc2)cc1 [Example 80, 5-[[4-(2-hydroxyethyl)phenoxy]methyl]-1-(4-methoxyphenyl)-3-methyl-pyrazole-4-carbonitrile]
28 | 0.22 µM | Cc1nn(-c2ccc(Cl)cn2)c(COc2c(F)cc(CCCO)cc2F)c1C#N [Example 166, 1-(5-chloro-2-pyridyl)-5-[[2,6-difluoro-4-(3-hydroxypropyl)phenoxy]methyl]-3-methyl-pyrazole-4-carbonitrile]
29 | 0.21 µM | COc1ccc(-n2nc(C)c(C#N)c2COc2c(F)cc(CCCO)cc2F)nc1 [Example 167, 5-[[2,6-difluoro-4-(3-hydroxypropyl)phenoxy]methyl]-1-(5-methoxy-2-pyridyl)-3-methyl-pyrazole-4-carbonitrile]
30 | 0.19 µM | N#Cc1cnn(-c2ccccc2)c1COc1ccc(CCCO)cc1 [Example 130, 5-[[4-(3-hydroxypropyl)phenoxy]methyl]-1-phenyl-pyrazole-4-carbonitrile]
31 | 0.099 µM | Cc1nn(C2CCCC2)c(COc2c(F)cc(CCCO)cc2F)c1C#N [Example 163, 1-cyclopentyl-5-[[2,6-difluoro-4-(3-hydroxypropyl)phenoxy]methyl]-3-methyl-pyrazole-4-carbonitrile]
